Experiments:
Format in all cases: cell-based, human
HCT116 cells [1] = test: Activity metabolomics screen of tryptophan metabolites, GC-MS profiling; settings: 2 mM, 6 hours, QMAP
Procedure: (§1) 6-well plates were treated for 6 hours with 2 mM of the indicated tryptophan metabolite for 6 hours before media was quickly removed, and plates were washed 2× with ice-cold PBS and 2× with ice-cold water before being snap frozen with liquid nitrogen. Cell plates were lyophilized overnight before metabolite extraction. To extract metabolites, 1 ml of an extraction buffer composed of 2:2:1 methanol/acetonitrile/water with internal standards at 1 μg/ml each (D4-Citric Acid, 13C5-Glutamine, 13C5-Glutamic Acid, 13C6-Lysine, 13C5-Methionine, 13C3-Serine, D4-Succinic Acid, 13C11-Tryptophan, and D8-Valine; Cambridge Isotope Laboratories) was added to the lyophilized cell samples. Cells were scraped for 20 seconds and collected into Eppendorf tubes, flash-frozen in liquid nitrogen, and sonicated for 10 minutes.
(§2) Samples were then placed on a rotating platform at −20° C. for 1 hour and centrifuged at 4° C. for 10 minutes at 21,000×g. 300 μL of the cleared metabolite extracts were transferred to fresh tubes for additional processing. An equal volume of each extract was pooled to serve as a quality control (QC) sample, which was analyzed at the beginning, end, and at a regular interval throughout an instrument run. Extraction buffer alone was analyzed as a processing blank sample. Metabolite extracts, the quality control sample, and the processing blank were evaporated to dryness using a speed-vacuum.
The dried metabolite extracts, QC sample, and processing blank sample, were derivatized using methoxyamine hydrochloride (MOX) and N,O-Bis (trimethylsilyl) trifluoroacetamide (TMS) (Sigma). Briefly, dried extracts were reconstituted in 30 μL of 11.4 mg/ml MOX in anhydrous pyridine (VWR), vortexed for 10 minutes, and heated at 60° C. for 1 hour. Next, 20 μL TMS was added to each reconstituted extract, vortexed for 1 minute, and heated at 60° C. for 30 min. The derivatized metabolite extracts, blanks, and QC were immediately analyzed using GC/MS.
GC chromatographic separation was conducted on a Thermo Trace 1300 GC with a TraceGold TG-5SilMS column (0.25 μM film thickness; 0.25 mm ID; 30 m length). An injection volume of 1 μL was used for all samples, blanks, and QCs. The GC was operated in split mode with the following settings: 20:1 split ratio; split flow: […], purge flow: 5 mL/min, Carrier mode: Constant Flow, Carrier flow rate: 1.2 mL/min). The GC inlet temperature was 250° C. The GC oven temperature gradient was as follows: 80° C. for 3 min, ramped at 20° C./min to a maximum temperature of 280° C., which was held for 8 min. The injection syringe was washed 3 times with pyridine between each sample. Metabolites were detected using a Thermo ISQ single quadrupole mass spectrometer. The data was acquired from 3.90 to 21.00 min in EI mode (70eV) by single ion monitoring (SIM).
(§3) Acquired LC-MS and GC-MS data were processed using the Thermo Scientific TraceFinder software. Targeted metabolites were identified by matching accurate mass and retention times to the University of Iowa Metabolomics Core Facility's in-house library of confirmed standards. After peak area integration by TraceFinder, NOREVA software was applied for signal drift correction on a metabolite-to-metabolite basis using the pooled QC sample that had been analyzed throughout the instrument run. Within individual samples, Post-NOREVA metabolite levels were divided by the total metabolite load (sum of all metabolite values) to equally weight individual metabolites for comparison across samples.

U2OS = test: CellTiter-Glo Luminescent Cell Viability Assay; settings: 2-fold dilution series, 48 hours, QMAP
Procedure: (§4) HT29, 293T, U2OS, and 3T3-LI cells were plated on an opaque 96-well plate in 1:1 DMEM. […] At the appropriate time point, 100 μl of CellTiter-Glo reagent (Promega #G7570) was added to each well. The plate was gently mixed for 2 minutes to induce lysis, incubated at room-temperature for 10 minutes, and then luminescence was measured.
To test whether tryptophan inhibition of growth applied to other cell lines and persisted in conventional cell culture media, two human cancer cell lines (HT29, U2OS), a transformed human embryonic kidney cell line (293T), and a mouse, fibroblast-like cell line (3T3-L1) were grown in DMEM for 24 hours and then treated with 2 mM tryptophan or vehicle. […]

293T = test: CellTiter-Glo Luminescent Cell Viability Assay; settings: 2-fold dilution series, 48 hours, QMAP
Procedure: as §4
To test whether tryptophan inhibition of growth applied to other cell lines and persisted in conventional cell culture media, two human cancer cell lines (HT29, U2OS), a transformed human embryonic kidney cell line (293T), and a mouse, fibroblast-like cell line (3T3-L1) were grown in DMEM for 24 hours and then treated with 2 mM tryptophan or vehicle. After 24 hours, cells were assayed by CellTiter-Glo, which indicates cell viability by measuring ATP production.

HCT116 cells [2] = test: Metabolic profiling of tryptophan metabolite-treated cells, LC-MS; settings: 6 hours, QMAP
Procedure: as §1, with “6-well plates were treated for 6 hours with 2 mM of the indicated tryptophan metabolite for 6 hours before media was quickly removed, and plates were washed 2× with ice-cold PBS and 2× with ice-cold water before being snap frozen with liquid nitrogen.” left out
as §2
Dried extracts were reconstituted in 30 μL of acetonitrile/water (1:1, V/V), vortexed for 10 minutes, and incubated at −20° C. for 18 hours. Samples were then centrifuged at 4° C. for 2 minutes at 21,000×g and the supernatant was transferred to autosampler vials for analysis.
For LC chromatographic separation, 2 μL of reconstituted metabolite extracts, QC sample, and processing blank were run on a Millipore SeQuant ZIC-PHILIC (2.1×150 mm, 5 um particle size, Millipore Sigma #150460) column with a ZIC-PHILIC guard column (20×2.1 mm, Millipore Sigma #150437) attached to a Thermo Vanquish Flex UHPLC. The mobile phase comprised Buffer A [20 mM (NH4)2CO3, 0.1% NH4OH (v/v)] and Buffer B [acetonitrile]. The chromatographic gradient was run at a flow rate of 0.150 mL/min as follows: 0-20 min-linear gradient from 80 to 20% Buffer B; 20-20.5 min-linear gradient from 20 to 80% Buffer B; and 20.5-28 min-hold at 80% Buffer B. Data were acquired using a Thermo Q Exactive MS operated in full-scan, polarity-switching mode with a spray voltage set to 3.0 kV, the heated capillary held at 275° C., and the HESI probe held at 350° C. The sheath gas flow was set to 40 units, the auxiliary gas flow was set to 15 units, and the sweep gas flow was set to 1 unit. MS data acquisition was performed with polarity switching in a range of m/z 70-1,000, with the resolution set at 70,000, the AGC target at 10e6, and the maximum injection time at 200 ms. The QC sample was analyzed at the beginning and end of the LC-MS run and after every 10 samples.
as §3

HCT116 cells [3] = test: Screen 2: metabolic profiling with unlabeled amino acids (LC-MS); settings: 6 hours; for increase in intracellular relative abundance of the amino acid used for treatment: 2 mM dose, relative to untreated cells
Procedure: Media was changed to QMAP plus individual amino acid treatments at the start of the experiment. 200 mM amino acid stocks were used to make the QMAP+individual amino acid treatment medias that were placed in the tissue culture incubator for 30-45 minutes prior to the start of the dosing for equilibration of media bicarbonate with incubator CO2. For metabolomic profiling experiments, cells were treated with additional amino acid doses of 0.5, 1 and 2 mM, and 1 mM was used for stable isotope tracing experiments. To minimize systematic error, each amino acid dose was added as a batch (20 amino acids+vehicle control) such that each well of each plate contained a different amino acid. The process was repeated for the other two concentrations of amino acids on the next plates to make set. This was repeated four more times to achieve the sample size of 5 replicates for each of the 3 doses of amino acids. Each plate was then incubated for 6 hours in the tissue culture incubator before being rapidly washed twice with sterile water and snap frozen on liquid nitrogen before being stored at −80° C. The next day, the plates were lyophilized for 90 minutes and then stored at −80° C.
Extraction buffer was prepared by adding 2:2:1 methanol: acetonitrile: water. For profiling, the following internal standards (Cambridge Isotope Laboratories) were added at 1 μg/mL each: L-Valine-D8, L-Aspartate (^13C4, D3, ^15N) and Succinate (13C4D4). 6-well plates were removed from storage at −80° C. and 1 ml of ice-cold extraction buffer was added. Plates were incubated at −20° C. for 5 minutes, scraped, transferred to microcentrifuge tubes and frozen in liquid nitrogen. Tubes were then placed into a sonicating water bath for 10 minutes and rotated at −20° C. for 1 hour before being centrifuged at 4° C. for 10 minutes at 21,000×g. […] of extract was dried down completely using a speed-vacuum (˜90 min), dissolved in […] of acetonitrile: water (1:1), vortexed for 10 min, and stored overnight at −20° C. to allow protein precipitation. Samples were then centrifuged at 4° C. for 10 minutes at 21,000×g and the supernatants were transferred into autosampler vials for analysis. For the QCs, […] of each extract was pooled, at the step prior to drying down, mixed and dried in […] amounts alongside the samples. Once dried, QCs were processed with the samples but recombined prior to being aliquoted into autosampler vials. All samples were then frozen at −80° C., and only one set of samples, which included a QC aliquot, was thawed, vortexed and placed into the instrument.
The sheath gas flow was set to 40 units, the auxiliary gas flow was set to 15 units and the sweep gas flow was set to 1 unit. […] For tracing, […] of sample was injected twice in either positive or negative mode to maximize detection efficiency and minimize metabolite crowding using the Sim-mode.
LC-MS data was processed using the Thermo Scientific TraceFinder 5.1 software.
The three cell lines were then treated with 0.5, 1, and 2 mM of individual, unlabeled amino acids, and metabolic profiling was performed to determine how individual amino acids quantitatively altered metabolite abundance (Screen 2).

IDO1 mRNA = test: Quantitative PCR of IDO1 mRNA; settings: 50 ng/μL for 24 hours, HCT116

Molecule: Nc1c(O)cccc1C(=O)CC(N)C(=O)O (stereo not shown) [3HK, 3-hydroxykynurenine]
- aconitate level (HCT116 cells [1]): significantly increased
- citrate level (HCT116 cells [1]): significantly increased
- disruption of TCA cycle metabolites (HCT116 cells [1]): more potent disruption than the other tryptophan metabolites
- distal TCA cycle metabolites (HCT116 cells [1]): drastically and significantly decreased
- glucose 6-phosphate level (HCT116 cells [1]): Significantly increased
- ribose 5-phosphate level (HCT116 cells [1]): Significantly increased
- ribulose 5-phosphate level (HCT116 cells [1]): Significantly increased
- cell viability (U2OS): dose-dependent decrease
- cell viability (293T): dose-dependent decrease
- increase of xanthommatin (HCT116 cells [2]; 2 mM dose): ~70 fold
- oxidized glutathione (GSSG) level (HCT116 cells [2]; 2 mM): significantly decreased
- reduced glutathione (GSH) level (HCT116 cells [2]; 2 mM): significantly decreased

Molecule: N[C@@H](CCC(=O)O)C(=O)O [glutamate, L-glutamic acid]
- increase in intracellular relative abundance of the amino acid used for treatment (HCT116 cells [3]; HCT116 cells): 1.25 fold
- TCA cycle intermediates (HCT116 cells [3]; 0.5, 1, 2 mM): increased

Molecule: NC(=O)CC[C@H](N)C(=O)O [glutamine, L-glutamine]
- increase in intracellular relative abundance of the amino acid used for treatment (HCT116 cells [3]; HCT116 cells): ~80 fold
- TCA cycle intermediates (HCT116 cells [3]; 0.5, 1, 2 mM): increased

Molecule: NCC(=O)O [glycine, L-glycine]
- serine level (HCT116 cells [3]; 0.5, 1, 2 mM, HCT116 cells): proportional, dose-dependent increase

Molecule: N[C@@H](CO)C(=O)O [serine, L-serine]
- glycine levels (HCT116 cells [3]; 0.5, 1, 2 mM, HCT116 cells): did not increase

B1: IFN-γ: the known IDO potentiator IFN-γ (protein, UniProt P01579 24-161, looked up)
Interferon gamma: QDPYVKEAENLKKYFNAGHSDVADNGTLFLGILKNWKEESDRKIMQSQIVSFYFKLFKNFKDDQSIQKSVETIKEDMNVKFFNSNKKKRDDFEKLTNYSVTDLNVQRKAIHELIQVMAELSPAAKTGKRKRSQMLFRG
- IDO1 mRNA (IDO1 mRNA): increased
